# Data reported in publication PMC11876601 (Molecular Systems Biology, 2025).
# Like-named read-outs stand apart in the source and are kept apart here.
# How the values were obtained:
# AsPC-1 [1] = assay: cells; design: ATPlite luminescence viability of PDAC cell lines, 11-dose single-agent curves, 4-parameter fit; settings: Homo sapiens, ASPC1, 72 h, read-out: EC50 [nM]
# Method in brief: (§1)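 cells (1000 to 5000 per well) seeded 24 h before drug addition in a combination screen at 0.2% final DMSO. Controls were drug-free wells (negative) and 5 µM staurosporine (positive).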
# Dan-G [2] = assay: cells; design: ATPlite luminescence viability of PDAC cell lines, 11-dose single-agent curves, 4-parameter fit; settings: 72 h, read-out: EC50 [nM]
# Method in brief: as §1
# PSN-1 [3] = assay: cells; design: ATPlite luminescence viability of PDAC cell lines, 11-dose single-agent curves, 4-parameter fit; settings: Homo sapiens, PSN1, 72 h, read-out: EC50 [nM]
# Method in brief: as §1
# PANC-1 [4] = assay: cells; design: ATPlite luminescence viability of PDAC cell lines, 11-dose single-agent curves, 4-parameter fit; settings: Homo sapiens, PANC-1, 72 h, read-out: EC50 [nM]
# Method in brief: as §1
# HPDE [5] = assay: cells; design: ATPlite luminescence viability of PDAC cell lines, 11-dose single-agent curves, 4-parameter fit; settings: HPDE, 72 h, read-out: EC50 [nM]
# Method in brief: as §1
# FAMPAC [6] = assay: cells; design: ATPlite luminescence viability of PDAC cell lines, 11-dose single-agent curves, 4-parameter fit; settings: 72 h, read-out: EC50 [nM]
# Method in brief: as §1
# Colo-357 [7] = assay: cells; design: ATPlite luminescence viability of PDAC cell lines, 11-dose single-agent curves, 4-parameter fit; settings: Homo sapiens, COLO357, 72 h, read-out: EC50 [nM]
# Method in brief: as §1
# Capan-1 [8] = assay: cells; design: ATPlite luminescence viability of PDAC cell lines, 11-dose single-agent curves, 4-parameter fit; settings: Homo sapiens, CAPAN-1, 72 h, read-out: EC50 [nM]
# Method in brief: as §1
# PaTu-8988-T [9] = assay: cells; design: ATPlite luminescence viability of PDAC cell lines, 11-dose single-agent curves, 4-parameter fit; settings: Homo sapiens, PaTu 8988t, 72 h, read-out: EC50 [nM]
# Method in brief: as §1
# Suit2-07 [10] = assay: cells; design: ATPlite luminescence viability of PDAC cell lines, 11-dose single-agent curves, 4-parameter fit; settings: 72 h, read-out: EC50 [nM]
# Method in brief: as §1
# HuP-T4 [11] = assay: cells; design: ATPlite luminescence viability of PDAC cell lines, 11-dose single-agent curves, 4-parameter fit; settings: Homo sapiens, HuP-T4, 72 h, read-out: EC50 [nM]
# Method in brief: as §1
# MiaPaCa-2 [12] = assay: cells; design: ATPlite luminescence viability of PDAC cell lines, 11-dose single-agent curves, 4-parameter fit; settings: Homo sapiens, MIA PaCa-2, 72 h, read-out: EC50 [nM]
# Method in brief: as §1
# BxPC-3 [13] = assay: cells; design: ATPlite luminescence viability of PDAC cell lines, 11-dose single-agent curves, 4-parameter fit; settings: Homo sapiens, BXPC-3, 72 h, read-out: EC50 [nM]
# Method in brief: as §1
# 13 PDAC cell lines = assay: Phenotypic drug combination viability screen (ATPlite, 72 h), cell line panel; format: cell-based, human; settings: for median AUC across all cell lines: single agent, 72 h; for synergy with GEM (Bliss model, ΣAUC∆ > 10%): any of the cell lines, GEM low and GEM high
# Procedure: (§2) Cell viability was assessed by measuring ATP levels to indicate metabolic activity.
# (§3) Afterward, small amounts were transferred to 384-well intermediate plates (Greiner Bio-One GmbH, Germany). […] For drug combination screening, 1000 to 5000 cells were seeded into 384-well plates (CulturPlate™, Perkin Elmer, MA, USA) using a Multidrop™ Combi Reagent Dispenser (Thermo Scientific, MA, USA) in 50 µl medium per well 24 h prior to drug treatment (seeding densities see Appendix Table S1). […] The final DMSO concentration in each well was 0.2%. […] Eight wells per plate without library drug served as negative controls, and sixteen wells per plate containing 5 µM Staurosporine served as positive controls. Control plates not containing any drug were used to correct for incubation effects, and data quality was assessed by calculation of Z-prime of positive and negative controls according to1 Z-prime=1−3SDpos+3SDneg/[…] where SD is the standard deviation. […] Dose–response curves from the experimental and hypothetical data were compared, and shifts in AUC were used to describe combination effects (AUC∆ = AUChypothetical − AUCexperimental). […] Only combinations with R^2 > 0.8 in both conditions were considered in the synergy analysis.
# [14] = tested on: HPDE (immortalized pancreatic duct cell line); assay: Drug combination viability screen (ATPlite, 72 h); format: cell-based, human; settings: for AUC: single agent, HPDE; for sensitization of HPDE cells to GEM: combination with GEM;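 for AUC: area under vehicle-normalized viability curve scaled 0 to 100 percent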
# Procedure: as §2, §3
# Colo-357 cells = assay: Drug combination viability screen (ATPlite, 72 h); format: cell-based, human; settings: Bliss model
# Procedure: as §2, §3
# Dan-G cells = assay: Drug combination viability screen (ATPlite, 72 h); format: cell-based, human; settings: Bliss model
# Procedure: as §2, §3
# Capan-1 cells = assay: Drug combination viability screen (ATPlite, 72 h); format: cell-based, human; settings: Bliss model
# Procedure: as §2, §3
# AsPC-1 [15] = assay: cells; design: Viability of PDAC cell lines, ATPlite luminescence, 11-dose single-agent curve fit; settings: Homo sapiens, ASPC1, 72 h, read-out: EC50 [nM]
# Method in brief: (§4)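 cells (1000 to 5000 per well) seeded 24 h before drug addition in a screen at 0.2% final DMSO. Controls were drug-free wells (negative) and 5 µM staurosporine (positive).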
# Dan-G [16] = assay: cells; design: Viability of PDAC cell lines, ATPlite luminescence, 11-dose single-agent curve fit; settings: 72 h, read-out: EC50 [nM]
# Method in brief: as §4
# PSN-1 [17] = assay: cells; design: Viability of PDAC cell lines, ATPlite luminescence, 11-dose single-agent curve fit; settings: Homo sapiens, PSN1, 72 h, read-out: EC50 [nM]
# Method in brief: as §4
# PANC-1 [18] = assay: cells; design: Viability of PDAC cell lines, ATPlite luminescence, 11-dose single-agent curve fit; settings: Homo sapiens, PANC-1, 72 h, read-out: EC50 [nM]
# Method in brief: as §4
# HPDE [19] = assay: cells; design: Viability of PDAC cell lines, ATPlite luminescence, 11-dose single-agent curve fit; settings: HPDE, 72 h, read-out: EC50 [nM]
# Method in brief: as §4
# FAMPAC [20] = assay: cells; design: Viability of PDAC cell lines, ATPlite luminescence, 11-dose single-agent curve fit; settings: 72 h, read-out: EC50 [nM]
# Method in brief: as §4
# Colo-357 [21] = assay: cells; design: Viability of PDAC cell lines, ATPlite luminescence, 11-dose single-agent curve fit; settings: Homo sapiens, COLO357, 72 h, read-out: EC50 [nM]
# Method in brief: as §4
# Capan-1 [22] = assay: cells; design: Viability of PDAC cell lines, ATPlite luminescence, 11-dose single-agent curve fit; settings: Homo sapiens, CAPAN-1, 72 h, read-out: EC50 [nM]
# Method in brief: as §4
# PaTu-8988-T [23] = assay: cells; design: Viability of PDAC cell lines, ATPlite luminescence, 11-dose single-agent curve fit; settings: Homo sapiens, PaTu 8988t, 72 h, read-out: EC50 [nM]
# Method in brief: as §4
# Suit2-07 [24] = assay: cells; design: Viability of PDAC cell lines, ATPlite luminescence, 11-dose single-agent curve fit; settings: 72 h, read-out: EC50 [nM]
# Method in brief: as §4
# HuP-T4 [25] = assay: cells; design: Viability of PDAC cell lines, ATPlite luminescence, 11-dose single-agent curve fit; settings: Homo sapiens, HuP-T4, 72 h, read-out: EC50 [nM]
# Method in brief: as §4
# MiaPaCa-2 [26] = assay: cells; design: Viability of PDAC cell lines, ATPlite luminescence, 11-dose single-agent curve fit; settings: Homo sapiens, MIA PaCa-2, 72 h, read-out: EC50 [nM]
# Method in brief: as §4
# BxPC-3 [27] = assay: cells; design: Viability of PDAC cell lines, ATPlite luminescence, 11-dose single-agent curve fit; settings: Homo sapiens, BXPC-3, 72 h, read-out: EC50 [nM]
# Method in brief: as §4
SMILES,EC50 (AsPC-1 [1]) [nM],EC50 (PANC-1 [4]) [nM],EC50 (Colo-357 [7]) [nM],EC50 (MiaPaCa-2 [12]) [nM],EC50 (BxPC-3 [13]) [nM],EC50 (Dan-G [2]) [nM],EC50 (PSN-1 [3]) [nM],EC50 (HPDE [5]) [nM],EC50 (FAMPAC [6]) [nM],EC50 (Capan-1 [8]) [nM],EC50 (PaTu-8988-T [9]) [nM],EC50 (Suit2-07 [10]) [nM],EC50 (HuP-T4 [11]) [nM],median AUC across all cell lines (13 PDAC cell lines) [%],synergy with GEM (Colo-357 cells),synergy with GEM (Dan-G cells),synergy with GEM (Capan-1 cells),sensitization of HPDE cells to GEM [14],other results
COc1c(OCCCN2CCOCC2)ccc2c1N=C(NC(=O)c1cnc(N)nc1)N1CCN=C21 [Copanlisib],175,58.8,17.6,65.6,113,29.8,787,283,1110,21.6,101,108,48,< 70,,,,,
CCc1cnn2c(NCc3ccc[n+]([O-])c3)cc(N3CCCC[C@H]3CCO)nc12 [Dinaciclib],,,,,,,,,,,,,,40,,,,,"synergy with GEM (Bliss model, ΣAUC∆ > 10%) (13 PDAC cell lines): No synergy; AUC [14]: 38%"
CO[C@H]1C[C@@H]2CC[C@@H](C)[C@@](O)(O2)C(=O)C(=O)N2CCCC[C@H]2C(=O)O[C@H]([C@H](C)C[C@@H]2CC[C@@H](OCCO)[C@H](OC)C2)CC(=O)[C@H](C)/C=C(\C)[C@@H](O)[C@@H](OC)C(=O)[C@H](C)C[C@H](C)/C=C/C=C/C=C/1C [Everolimus],,,,,,,,,,,,,,> 80,synergized,synergized,synergized,strongly sensitized,
CO[C@H]1C[C@@H]2CC[C@@H](C)[C@@](O)(O2)C(=O)C(=O)N2CCCC[C@H]2C(=O)O[C@H]([C@H](C)C[C@@H]2CC[C@@H](O)[C@H](OC)C2)CC(=O)[C@H](C)/C=C(\C)[C@@H](O)[C@@H](OC)C(=O)[C@H](C)C[C@H](C)/C=C/C=C/C=C/1C [Rapamycin],,,,,,,,,,,,,,> 80,synergized,synergized,synergized,strongly sensitized,EC50 (AsPC-1 [15]): 50.8 nM; EC50 (Dan-G [16]): 0.09 nM; EC50 (PSN-1 [17]): 0.05 nM; EC50 (PANC-1 [18]): 4.67 nM; EC50 (HPDE [19]): 0.08 nM; EC50 (FAMPAC [20]): 1.59 nM; EC50 (Colo-357 [21]): 276 nM; EC50 (Capan-1 [22]): 0.11 nM; EC50 (PaTu-8988-T [23]): 0.05 nM; EC50 (Suit2-07 [24]): 7.19 nM; EC50 (HuP-T4 [25]): 1.13 nM; EC50 (MiaPaCa-2 [26]): 1.11 nM; EC50 (BxPC-3 [27]): 0.08 nM
CO[C@H]1C[C@@H]2CC[C@@H](C)[C@@](O)(O2)C(=O)C(=O)N2CCCC[C@H]2C(=O)O[C@H]([C@H](C)C[C@@H]2CC[C@@H](OP(C)(C)=O)[C@H](OC)C2)CC(=O)[C@H](C)/C=C(\C)[C@@H](O)[C@@H](OC)C(=O)[C@H](C)C[C@H](C)/C=C/C=C/C=C/1C [Ridaforolimus],,,,,,,,,,,,,,> 80,synergized,synergized,synergized,strongly sensitized,EC50 (AsPC-1 [15]): 0.22 nM; EC50 (Dan-G [16]): 87.2 nM; EC50 (PSN-1 [17]): 0.26 nM; EC50 (PANC-1 [18]): 4.17 nM; EC50 (HPDE [19]): 0.56 nM; EC50 (FAMPAC [20]): 0.13 nM; EC50 (Colo-357 [21]): 127 nM; EC50 (Capan-1 [22]): 31.4 nM; EC50 (PaTu-8988-T [23]): 0.04 nM; EC50 (Suit2-07 [24]): 118 nM; EC50 (HuP-T4 [25]): 15.9 nM; EC50 (MiaPaCa-2 [26]): 3.25 nM; EC50 (BxPC-3 [27]): 0.13 nM

# Continued, in another order:
EC50 (AsPC-1 [1]) [nM],EC50 (PANC-1 [4]) [nM],EC50 (Colo-357 [7]) [nM],EC50 (MiaPaCa-2 [12]) [nM],EC50 (BxPC-3 [13]) [nM],SMILES,EC50 (Dan-G [2]) [nM],EC50 (PSN-1 [3]) [nM],EC50 (HPDE [5]) [nM],EC50 (FAMPAC [6]) [nM],EC50 (Capan-1 [8]) [nM],EC50 (PaTu-8988-T [9]) [nM],EC50 (Suit2-07 [10]) [nM],EC50 (HuP-T4 [11]) [nM],median AUC across all cell lines (13 PDAC cell lines) [%],synergy with GEM (Colo-357 cells),synergy with GEM (Dan-G cells),synergy with GEM (Capan-1 cells),sensitization of HPDE cells to GEM [14],other results
1.5,70.5,10.8,10.1,11.2,CC(C)n1nc(-c2ccc3oc(N)nc3c2)c2c(N)ncnc21 [Sapanisertib],8.08,23.2,11.7,2.05,135,3.95,14.2,1510,54,,,,,AUC [14]: < 60%
21.1,37.7,19.8,12.8,25.2,CC[C@@H]1C(=O)N(C)c2cnc(Nc3ccc(C(=O)N[C@H]4CC[C@H](N5CCN(CC6CC6)CC5)CC4)cc3OC)nc2N1C(C)C [Volasertib],29.1,16.4,> 10000,19.9,32.3,33.8,19,> 10000,54,,,,,"synergy with GEM (Bliss model, ΣAUC∆ > 10%) (13 PDAC cell lines): No synergy"
